Test results from US20230144211A1, “ANTIFOLATE LINKER-DRUGS AND ANTIBODY-DRUG CONJUGATES” (Byondis B.V., priority 2020, published 2023).

Columns and labels:
Experiment in all cases: In vitro cell viability assay (CellTiter-Glo, 6 days)
[1] = test system: SK-BR-3 cells; assay type: cell-based, human; conditions: Homo sapiens, SK-BR-3, 24 h, free antifolate drugs, Table 1d
Method in brief: (§1)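 Cells plated overnight, then given 10 serial log10 dilutions of free drug (1% final DMSO) or ADC in medium. After 6 days, CellTiter-Glo luminescence expressed as % of untreated control. IC50 taken as the midpoint of a 4-parameter logistic fit; mean of at least one experiment in duplicate.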

[2] = test system: BxPC-3 cells; assay type: cell-based; conditions: Homo sapiens, free antifolate drugs, Table 1d
Procedure: (§2) FaDu, BxPC-3, HeLa, MV4-11, and RAJI cell lines were obtained from Deutsche Sammlung von Mikroorganismen und Zellkulturen (Leipzig, Germany). Jurkat NucLight Red cells were obtained from Essen BioScience Inc. (Ann Arbor, Mich., USA). SK-BR-3 and SK-OV-3 cells were cultured in McCoys 5A medium (Lonza; Walkersville, Md., USA) supplemented with 10% v/w Fetal Bovine Serum (FBS), Heat-inactivated (HI) (Gibco-Life Technologies; Carlsbad, Calif.) and 80 U/mL Pen/Strep (Gibco-Life Technologies), at 37° C. in a humidified incubator under 5% CO2 atmosphere. SW-620 cells were similarly maintained in RPMI 1640 medium (Lonza), containing 10% v/w FBS HI and 80 U/mL Pen/Strep. A-549 cells were similarly maintained in F-12K Nutrient Mixture (1×) (Gibco-Life Technologies) media supplemented with 80 U/mL Pen/Strep and 5% v/w FBS, which was Qualified (Q) (Gibco-Life Technologies). BT-474 and AU-565 cells were similarly maintained in RPMI 1640 medium (Lonza), containing 10% v/w FBS, which was Qualified (Q) (Gibco-Life Technologies), and 80 U/mL Pen/Strep. […] Jurkat NucLight Red cells were similarly maintained in RPMI 1640 medium (Lonza), containing 10% v/w FBS HI, 80 U/mL Pen/Strep and 0.5 μg/mL Puromycin (Gibco-Life Technologies). FaDu cells were cultured in EMEM medium (Lonza) supplemented with 10% v/w FBS HI (Gibco-Life Technologies), 1× GlutaMAX (Gibco-Life Technologies), and 80 U/mL Pen/Strep (Gibco-Life Technologies), at 37° C. in a humidified incubator under 5% CO2 atmosphere.
(§3) After an overnight incubation, 10 serial log 10 dilutions of the free drugs were made in DMSO (Sigma-Aldrich). These free drug dose-response curves were 10-times further diluted in complete growth medium. For the ADCs according to the invention 10 serial log 10 dilutions were made in complete growth medium. 10 μL of a composition comprising a free drug or an ADC according to the invention was added to the assay plate (final DMSO content for free drugs was 1%). […] […] Percentage cell survival was calculated by dividing the measured luminescence for each free drug or ADC according to the concentration with the average mean of untreated cells (1% or 0.1% DMSO control (for free drugs) or 100% complete growth medium (for ADCs)) multiplied by 100.
(§4) Curves were fitted by non-linear regression using the sigmoidal dose-response equation with variable slope (four parameters) using curve-fitting software (GraphPad Prism, version 9.4.0 for Windows, GraphPad, San Diego, Calif. or Electronic Laboratory Notebook (ELN) add-in BioAssay, version 19.1.0.0218, Perkin Elmer, Waltham, Mass.). Relative IC50 values were calculated as the concentration that gives a response halfway between bottom and top of the curve, when using a 4-parameter logistic fit. Data were reported as mean IC50 value of at least one experiment performed in duplicate.

[3] = test system: FaDu cells; assay type: cell-based; conditions: Homo sapiens, free antifolate drugs, Table 1d
Procedure: as §2, §3, §4

[4] = test system: Jurkat NucLight Red cells; assay type: cell-based, human; conditions: Homo sapiens, Jurkat, 24 h, free antifolate drugs, Table 1d
Method in brief: as §1

[5] = test system: Jurkat Clone E6-1 cells; assay type: cell-based; conditions: Homo sapiens, free antifolate drugs, Table 1d
Procedure: Human tumor cell lines SK-BR-3, SW-620, A-549, BT-474, Jurkat Clone E6-1, AU-565, and SK-OV-3 were obtained from American Type Culture Collection (Rockville, Md., USA). FaDu, BxPC-3, HeLa, MV4-11, and RAJI cell lines were obtained from Deutsche Sammlung von Mikroorganismen und Zellkulturen ([…], Germany). Jurkat NucLight Red cells were obtained from Essen BioScience Inc. (Ann Arbor, Mich., USA). SK-BR-3 and SK-OV-3 cells were cultured in McCoys 5A medium (Lonza; Walkersville, Md., USA) supplemented with 10% v/w Fetal Bovine Serum (FBS), Heat-inactivated (HI) (Gibco-Life Technologies; Carlsbad, Calif.) and 80 U/mL Pen/Strep (Gibco-Life Technologies), at 37° C. in a humidified incubator under 5% CO2 atmosphere. […]
Cells in complete growth medium were plated in 96-well plates (90 μL/well) and incubated at 37° C., 5% CO2 at the following cell densities: 6500 SK-BR-3, 4000 SW-620, 2500 A-549, 10000 BT-474, 3000 Jurkat Clone E6-1, 5000 AU-565, 1250 FaDu, 1250 BxPC-3, 1000 HeLa, 7500 MV4-11, 1000 RAJI, 3000 Jurkat NucLight Red, and 4000 SK-OV-3 cells per well. […] Percentage cell survival was calculated by dividing the measured luminescence for each free drug or ADC according to the concentration with the average mean of untreated cells (1% or 0.1% DMSO control (for free drugs) or 100% complete growth medium (for ADCs)) multiplied by 100. […]

- IC50 [1]: 0.86 nM
- IC50 [2]: 0.78 nM
- IC50 [4]: 0.66 nM
- IC50 [5]: 0.78 nM
SMILES: Nc1ccc(C(=O)NCCC[C@H](NC(=O)c2ccc(CCc3cnc4nc(N)nc(N)c4n3)cc2O)C(=O)O)c(-c2nnn[nH]2)c1 [XT162, (S)-5-(4-Amino-2-(1H-tetrazol-5-yl)benzamido)-2-(4-(2-(2,4-diaminopteridin-6-yl)ethyl)-2-hydroxybenzamido)pentanoic acid]
- IC50 [3]: 0.44 nM
